The record followed here is patent US5336690A, “Aminosulfonyl carbamates composition and method of use to treat hypercholesterolemia and atherosclerosis” (Warner-Lambert Company, priority 1993, dated 1994).

Structures can show the parent of a compound that is named as a salt. Where two headings read alike, the source gives them in different places.

The assay in a line: APCC in vivo screen: blood cholesterol in male Sprague-Dawley rats on high fat, high cholesterol diet with 0.5% cholic acid. Particulars: high fat high cholesterol diet overnight; for change in vivo at 30 mg/kg / % Change (mg/dl) (cholesterol): single dose 30 mg/kg; for change in vivo at 30 mg/kg / change in vivo at 50 mg/kg: read-out: % Change (mg/dl) (cholesterol); for % Change (mg/dl) (cholesterol): 30 mg/kg; for change in vivo at 50 mg/kg: single dose 50 mg/kg (*). The source says: In one in vivo screen designated APCC, male Sprague-Dawley rats (200 to 225 g) were randomly divided into treatment groups and dosed at 4 PM with either vehicle (CMC/Tween) or suspensions of compounds in vehicle. The normal chow diet was then replaced with a high fat, high cholesterol diet with 0.5% cholic acid. The rats consumed this diet ad libitum during the night and were sacrificed at 8 AM to obtain blood samples for cholesterol analysis using standard procedures. Statistical differences between mean cholesterol values for the same vehicle were determined using analysis of variance followed by Fisher's least significant test. The compounds were dosed at 30 mg/kg unless otherwise noted.

`CCCCCCCCCCCCOC(=O)NS(=O)(=O)Nc1c(C(C)C)cccc1C(C)C` [Example 2]: the change in vivo at 30 mg/kg (rat) was found to be 0%. For the compound `CCCCN(CCCC)S(=O)(=O)NC(=O)Oc1c(C(C)C)cccc1C(C)C` [Example 57, 2,6-bis(1-methylethyl)phenyl[(dibutylamino)sulfonyl]carbamate monosodium salt], under “rat, monosodium salt”, the “% Change (mg/dl) (cholesterol)” value is -66 % Change (mg/dl). For `Cc1cc(C(C)(C)C)c(OC(=O)NS(=O)(=O)N(CCCN(C)C)CCCN(C)C)c(C(C)(C)C)c1` [Example 28, 2,6-Bis(1,1-dimethylethyl)-4-methylphenyl[[[bis-3-(di-methylamino)propyl]amino]sulfonyl]carbamate], the change in vivo at 30 mg/kg (rat) is -13%. With `CC(C)c1cccc(C(C)C)c1OC(=O)NS(=O)(=O)N1CCc2ccccc21` [Example 54], the change in vivo at 30 mg/kg (Rattus norvegicus) is -77%. Same read-out and setting: for `CCCCCCN(CCCCCC)S(=O)(=O)NC(=O)Oc1c(C(C)C)cccc1C(C)C` [Example 41, 2,6-Bis(1-methylethyl)phenyl[(dihexylamino)sulfonyl]carbamate] the value was -62%. As to `CC(C)c1cccc(C(C)C)c1OC(=O)NS(=O)(=O)N(Cc1ccccc1)Cc1ccccc1` [Example 12, 2,6-Bis(1-methylethyl)phenyl[[bis(phenylmethyl)amino]sulfonyl]carbamate], the change in vivo at 30 mg/kg (Rattus norvegicus) was -43%. `CC(C)c1cccc(C(C)C)c1OC(=O)NS(=O)(=O)Nc1ccccc1` [Example 14, 2,6-Bis(1-methylethyl)phenyl[(phenylamino)sulfonyl]carbamate]: under “Rattus norvegicus”, the change in vivo at 50 mg/kg is -55%. For `CCCCCCCCN(CCCCCCCC)S(=O)(=O)NC(=O)Oc1c(C(C)C)cccc1C(C)C` [Example 38, 2,6-Bis(1-methylethyl)phenyl[(dioctylamino)sulfonyl]carbamate], under “Rattus norvegicus”, the change in vivo at 30 mg/kg is -70%.

For `COc1cc(C(C)(C)C)c(OC(=O)NS(=O)(=O)NCC(c2ccccc2)c2ccccc2)c(C(C)(C)C)c1` [Example 3], the change in vivo at 30 mg/kg (Rattus norvegicus) is -55%. On the same count and under the same terms, for `CCCCCCCCN(C)S(=O)(=O)NC(=O)Oc1c(C(C)(C)C)cc(C)cc1C(C)(C)C` [Example 29, 2,6-Bis(1,1-dimethylethyl)-4-methylphenyl[(methyloctylamino)sulfonyl]carbamate] the value was -55%. Consider `CC(C)(C)c1cccc(C(C)(C)C)c1OC(=O)NS(=O)(=O)NC(c1ccccc1)c1ccccc1` [Example 5, 2,6-bis(1,1-dimethylethyl)phenyl[[(diphenylmethyl)amino]sulfonyl]carbamate], for which the change in vivo at 50 mg/kg (Rattus norvegicus) was -35%.

In the case of `CC(C)c1cccc(C(C)C)c1OC(=O)NS(=O)(=O)N(C(C)C)C(C)C` [Example 35, 2,6-Bis(1-methylethyl)phenyl[[bis(1-methylethyl)amino]sulfonyl]carbamate], the change in vivo at 30 mg/kg (Rattus norvegicus) is -76%. As to `CCCCCCCCCCCCOC(=O)NS(=O)(=O)Nc1c(OC)cc(OC)cc1OC` [Example 43, Dodecyl[[(2,4,6-trimethoxyphenyl)amino]sulfonyl]carbamate], the change in vivo at 30 mg/kg (rat) was -8%. On to `CC(C)(C)c1cccc(C(C)(C)C)c1OC(=O)NS(=O)(=O)Nc1ccccc1` [Example 8, 2,6-bis(1,1-dimethylethyl)phenyl[(phenylamino)sulfonyl]carbamate], for which the change in vivo at 50 mg/kg (Rattus norvegicus) is -26%. As to `CN(C(=O)Oc1c(C(C)(C)C)cccc1C(C)(C)C)S(=O)(=O)NC(c1ccccc1)c1ccccc1` [Example 58, 2,6-bis(1,1-dimethylethyl)phenyl[[(diphenylmethyl)amino]sulfonyl]methyl carbamate], under “Rattus norvegicus”, the change in vivo at 30 mg/kg worked out at 4%. For `CC(C)c1cccc(C(C)C)c1OC(=O)NS(=O)(=O)N(Cc1ccccc1)C(C)C` [Example 36], the change in vivo at 30 mg/kg (Rattus norvegicus) is -70%. Regarding `Cc1cc(C(C)(C)C)c(OC(=O)NS(=O)(=O)N(C)CCc2ccccn2)c(C(C)(C)C)c1` [Example 33, 2,6-Bis(1,1-dimethylethyl)-4-methylphenyl[[[methyl 2-(2-pyridinyl)ethyl]amino]sulfonyl]carbamate, sodium salt], the “% Change (mg/dl) (cholesterol)” value (rat, sodium salt) was -22 % Change (mg/dl). Take `CCCCCCCCN(C)S(=O)(=O)NC(=O)Oc1c(C(C)C)cccc1C(C)C` [Example 40, 2,6-Bis(1-methylethyl)phenyl[(methyloctylamino)sulfonyl]carbamate]: the change in vivo at 30 mg/kg (Rattus norvegicus) is -60%. As to `CC(C)c1cccc(C(C)C)c1NS(=O)(=O)NC(=O)Oc1c(C(C)(C)C)cccc1C(C)(C)C` [Example 6, 2,6-bis(1,1-dimethylethyl)phenyl[[[2,6-bis(1-methylethyl)phenyl]amino]sulfonyl]carbamate], under “Rattus norvegicus”, the change in vivo at 50 mg/kg was -57%. For `Cc1cc(C(C)(C)C)c(OC(=O)NS(=O)(=O)Nc2c(C(C)C)cccc2C(C)C)c(C(C)(C)C)c1` [Example 19], the change in vivo at 50 mg/kg (Rattus norvegicus) was -56%.

In the case of `CC(C)c1cccc(C(C)C)c1OC(=O)NS(=O)(=O)N(c1ccccc1)c1ccccc1` [Example 10, 2,6-bis(1-methylethyl)phenyl[(diphenylamino)sulfonyl]carbamate], under “Rattus norvegicus”, the change in vivo at 30 mg/kg was -67%. As for `CCCCN(CCCC)S(=O)(=O)NC(=O)Oc1c(C(C)(C)C)cc(C)cc1C(C)(C)C` [Example 22, 2,6-Bis(1,1-dimethylethyl)-4-methylphenyl[(dibutylamino)sulfonyl]carbamate], the change in vivo at 30 mg/kg (Rattus norvegicus) is -4%. Take `Cc1cc(C(C)(C)C)c(OC(=O)NS(=O)(=O)NCC(c2ccccc2)c2ccccc2)c(C(C)(C)C)c1` [Example 20, 2,6-Bis(1,1-dimethylethyl)-4-methylphenyl[[(2,2-diphenylethyl)amino]sulfonyl]carbamate]: under “Rattus norvegicus”, the change in vivo at 50 mg/kg was -54%. For the compound `CCCCCCN(CCCCCC)S(=O)(=O)NC(=O)Oc1c(C(C)(C)C)cc(C)cc1C(C)(C)C` [Example 25, 2,6-Bis(1,1-dimethylethyl)-4-methylphenyl[(dihexylamino)sulfonyl]carbamate], the change in vivo at 30 mg/kg (Rattus norvegicus) is -40%. For the compound `CCCCCCCCN(CCCCCCCC)S(=O)(=O)NC(=O)Oc1c(C(C)(C)C)cc(C)cc1C(C)(C)C` [Example 31, 2,6-Bis(1,1-dimethylethyl)-4-methylphenyl[(dioctylamino)sulfonyl]carbamate], the change in vivo at 30 mg/kg (Rattus norvegicus) is 0%. Still for that read-out and setting: for `CC(C)c1cccc(C(C)C)c1OC(=O)NS(=O)(=O)N1CCCC1` [Example 52, 2,6-Bis(1-methylethyl)-phenyl ester(1-pyrrolidinylsulfonyl)-carbamic acid] the value was -53%; for `CC(C)c1cccc(C(C)C)c1OC(=O)NS(=O)(=O)Nc1nc2ccccc2[nH]1` [Example 13, 2,6-Bis(1-methylethyl)phenyl[(1H-benzimidazol-2-ylamino)sulfonyl]carbamate], 8%. As to `CC(C)(C)c1cccc(C(C)(C)C)c1OC(=O)NS(=O)(=O)N(Cc1ccccc1)Cc1ccccc1` [Example 9], the change in vivo at 50 mg/kg (Rattus norvegicus) was -3%. On to `CCCCCCCCCCN(CCCCCCCCCC)S(=O)(=O)NC(=O)Oc1c(C(C)(C)C)cc(C)cc1C(C)(C)C` [Example 34], for which the change in vivo at 30 mg/kg (Rattus norvegicus) is -4%.

As for `Cc1cc(C(C)(C)C)c(OC(=O)NS(=O)(=O)NC(c2ccccc2)c2ccccc2)c(C(C)(C)C)c1` [Example 18, 2,6-Bis(1,1-dimethylethyl)-4-methylphenyl[[(diphenylmethyl)amino]sulfonyl]carbamate], for the setting “Rattus norvegicus”, the change in vivo at 50 mg/kg was -42%. Consider `Cc1cc(C(C)(C)C)c(OC(=O)NS(=O)(=O)N(CC2CCCO2)CC2CCCO2)c(C(C)(C)C)c1` (centres unmarked) [Example 30, 2,6-Bis(1,1-dimethylethyl)4-methylphenyl[[bis[(tetrahydro-2-furanyl)methyl]amino]sulfonyl]carbamate], for which the change in vivo at 30 mg/kg (Rattus norvegicus) is 2%. As to `CC(C)(C)c1cccc(C(C)(C)C)c1OC(=O)NS(=O)(=O)NCC(c1ccccc1)c1ccccc1` [Example 7, 2,6-bis(1,1-dimethylethyl)phenyl[[(2,2-diphenylethyl)amino]sulfonyl]carbamate], the change in vivo at 50 mg/kg (Rattus norvegicus) was -32%. Take `Cc1cc(C(C)(C)C)c(OC(=O)NS(=O)(=O)N(C(C)C)C(C)C)c(C(C)(C)C)c1` [Example 24, 2,6-Bis(1,1-dimethylethyl)-4-methylphenyl[[bis(1-methylethyl)amino]sulfonyl]carbamate]: the change in vivo at 30 mg/kg (Rattus norvegicus) was -19%.

As to `CCCCCCNS(=O)(=O)NC(=O)Oc1c(C(C)(C)C)cc(C)cc1C(C)(C)C` [Example 26, 2,6-Bis(1,1-dimethylethyl)-4-methylphenyl[(hexylamino)sulfonyl]carbamate], the change in vivo at 30 mg/kg (Rattus norvegicus) was -52%.

Regarding `CCCCCCNS(=O)(=O)NC(=O)Oc1c(C(C)C)cccc1C(C)C` [Example 37, 2,6-Bis(1-methylethyl)phenyl[(hexylamino)sulfonyl]carbamate], the change in vivo at 30 mg/kg (Rattus norvegicus) is -58%. The same measure, in the same setting: the same measure for `CC(C)c1cccc(C(C)C)c1OC(=O)NS(=O)(=O)N(C(C)C)C1CCCCC1` [Example 39, 2,6-Bis(1-methylethyl)phenyl[[cyclohexyl(1-methylethyl)amino]sulfonyl]carbamate]: -60%. In the case of `COc1cc(C(C)(C)C)c(OC(=O)NS(=O)(=O)Nc2c(C(C)C)cccc2C(C)C)c(C(C)(C)C)c1` [Example 4, 2,6-bis(1,1-dimethylethyl)-4-methoxy phenyl[[[2,6-bis(1-methylethyl)phenyl]amino]sulfonyl]carbamate], the change in vivo at 30 mg/kg (Rattus norvegicus) is -77%. In the case of `CC(C)c1cccc(C(C)C)c1NS(=O)(=O)NC(=O)Oc1c(C(C)C)cccc1C(C)C` [Example 16, 2,6-Bis(1-methylethyl)phenyl[[[2,6-bis(1-methylethyl)phenyl]amino]sulfonyl]carbamate], the change in vivo at 50 mg/kg (Rattus norvegicus) was -65%.
